Source: patent US12077503B2, “Substituted cyclic amides and their use as herbicides” (FMC CORPORATION, priority 2015, dated 2024)

Legend:
Type in all cases: in vivo
[1] = tested on: blackgrass (Alopecurus myosuroides); assay: Test A postemergence; settings: Alopecurus myosuroides, post-emergence, 240 h
Summary of the method: (§1)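 Ratings of 0 (no effect) to 100 (complete control) come from visual comparison with untreated controls roughly 10 d after treatment. Test chemicals, formulated in a non-phytotoxic solvent mixture with surfactant, were applied either as a preemergence directed soil spray on seeded soil or postemergence to one- to two-leaf plants 2 to 10 cm tall.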

Kochia (Kochia scoparia) [2] = assay: Test A postemergence; settings: Bassia scoparia, post-emergence, 240 h
Summary of the method: as §1

[3] = tested on: giant foxtail (Setaria faberii); assay: Test A postemergence; settings: Setaria faberi, post-emergence, 240 h
Summary of the method: as §1

[4] = tested on: ragweed (common ragweed, Ambrosia elatior); assay: Test A postemergence; settings: Ambrosia artemisiifolia, post-emergence, 240 h, 125 g ai/ha, postemergence, visual injury vs untreated controls after approx. 10 d; 0 = no effect, 100 = complete control; read-out: Ragweed plant response rating (0 to 100 scale)
Summary of the method: as §1

[5] = tested on: pigweed (Amaranthus retroflexus); assay: Test A postemergence; settings: Amaranthus retroflexus, post-emergence, 240 h, 125 g ai/ha, postemergence, visual injury vs untreated controls after approx. 10 d; 0 = no effect, 100 = complete control; read-out: Pigweed plant response rating (0 to 100 scale)
Summary of the method: as §1

[6] = tested on: Galium (catchweed bedstraw, Galium aparine); assay: Test A postemergence; settings: Galium, post-emergence, 240 h
Summary of the method: as §1

[7] = tested on: ryegrass, Italian (Italian ryegrass, Lolium multiflorum); assay: Test A postemergence; settings: Lolium multiflorum, post-emergence, 240 h, 125 g ai/ha, postemergence, visual injury vs untreated controls after approx. 10 d; 0 = no effect, 100 = complete control; read-out: Ryegrass, Italian plant response rating (0 to 100 scale)
Summary of the method: as §1

[8] = tested on: barnyardgrass (Echinochloa crus-galli); assay: Test A postemergence; settings: Echinochloa crus-galli, post-emergence, 240 h
Summary of the method: as §1

[9] = tested on: wheat (Triticum aestivum); assay: Test A postemergence; settings: Triticum aestivum, post-emergence, 240 h, 125 g ai/ha, postemergence, visual injury vs untreated controls after approx. 10 d; 0 = no effect, 100 = complete control; read-out: Wheat plant response rating (0 to 100 scale)
Summary of the method: as §1

corn (Zea mays) = assay: Test A postemergence; settings: Zea mays, post-emergence, 240 h
Summary of the method: as §1

Kochia (Kochia scoparia) [10] = assay: Test A preemergence; settings: Bassia scoparia, pre-emergence, 240 h, 0 to 100 scale where 0 is no effect and 100 is complete control, read-out: Kochia plant response rating
Summary of the method: as §1

[11] = tested on: giant foxtail (Setaria faberii); assay: Test A preemergence; settings: Setaria faberi, pre-emergence, 240 h, 0 to 100 scale where 0 is no effect and 100 is complete control, read-out: Foxtail, Giant plant response rating
Summary of the method: as §1

[12] = tested on: ragweed (common ragweed, Ambrosia elatior); assay: Test A preemergence; settings: Ambrosia artemisiifolia, pre-emergence, 240 h, 0 to 100 scale where 0 is no effect and 100 is complete control, read-out: Ragweed plant response rating
Summary of the method: as §1

[13] = tested on: pigweed (Amaranthus retroflexus); assay: Test A preemergence; settings: Amaranthus retroflexus, pre-emergence, 240 h, 0 to 100 scale where 0 is no effect and 100 is complete control, read-out: Pigweed plant response rating
[14] = tested on: ryegrass, Italian (Italian ryegrass, Lolium multiflorum); assay: Test A preemergence; settings: Lolium multiflorum, pre-emergence, 240 h, 0 to 100 scale where 0 is no effect and 100 is complete control, read-out: Ryegrass, Italian plant response rating
Summary of the method: as §1

[15] = tested on: barnyardgrass (Echinochloa crus-galli); assay: Test A preemergence; settings: Echinochloa crus-galli, pre-emergence, 240 h, 0 to 100 scale where 0 is no effect and 100 is complete control, read-out: Barnyardgrass plant response rating
Summary of the method: as §1

[16] = tested on: ducksalad (Heteranthera limosa); assay: Test B flooded paddy test; settings: Heteranthera limosa, 250 g ai/ha, Flood; 0 to 100 scale where 0 is no effect and 100 is complete control; read-out: Ducksalad plant response rating
Summary of the method: (§2)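 Response scored visually against untreated controls, 0 = no effect and 100 = complete control, 13–15 d after treatment in the greenhouse. Compounds added to paddy water held 3 cm above soil surface. Treatment given at 2-leaf stage.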

[17] = tested on: sedge, umbrella (small-flower umbrella sedge, Cyperus difformis); assay: Test B flooded paddy test; settings: Cyperus difformis, 250 g ai/ha, Flood; 0 to 100 scale where 0 is no effect and 100 is complete control; read-out: Sedge, Umbrella plant response rating
Summary of the method: as §2

rice (Oryra sativa) = assay: Test B flooded paddy test; settings: Oryza sativa, 250 g ai/ha, Flood; 0 to 100 scale where 0 is no effect and 100 is complete control; read-out: Rice plant response rating
Summary of the method: as §2

[18] = tested on: barnyardgrass (Echinochloa crus-galli); assay: Test B flooded paddy test; settings: Echinochloa crus-galli, 250 g ai/ha, Flood; 0 to 100 scale where 0 is no effect and 100 is complete control; read-out: Barnyardgrass plant response rating
Summary of the method: as §2

[19] = 125 g ai/ha, preemergence, visual injury rating, approximately 10 d

CSc1ccccc1NC(=O)[C@H]1C(=O)N(C)C[C@@H]1c1ccc(C)cc1 [Compound 1187]
0%: pest or weed control at 31 g/ha ([1]; Postemergence, 31 g ai/ha, visual injury after approx. 10 d, 0 to 100 scale, 0 no effect, 100 complete control, read-out: Plant response rating, Blackgrass) | pest or weed control at 31 g/ha (Kochia (Kochia scoparia) [2]; Postemergence, 31 g ai/ha, visual injury after approx. 10 d, 0 to 100 scale, 0 no effect, 100 complete control, read-out: Plant response rating, Kochia) | pest or weed control at 125 g/ha [4] | pest or weed control at 125 g/ha [5] | plant injury at 125 g/ha (corn (Zea mays); 125 g ai/ha, postemergence, visual injury vs untreated controls after approx. 10 d, 0 = no effect, 100 = complete control, read-out: Corn plant response rating (0 to 100 scale)) | Corn plant response rating (crop injury, 0 = no effect, 100 = complete kill) at 31 g/ha (corn (Zea mays); Postemergence, 31 g ai/ha, visual injury after approx. 10 d, 0 to 100 scale, 0 no effect, 100 complete control) | pest or weed control at 31 g/ha ([12]; 31 g ai/ha, Preemergence) | pest or weed control at 31 g/ha ([13]; 31 g ai/ha, Preemergence) | pest or weed control at 31 g/ha ([14]; 31 g ai/ha, Preemergence) | pest or weed control at 250 g/ha [17] | pest or weed control at 250 g/ha (rice (Oryra sativa))
80%: pest or weed control at 125 g/ha ([3]; 125 g ai/ha, postemergence, visual injury vs untreated controls after approx. 10 d, 0 = no effect, 100 = complete control, read-out: Foxtail, Giant plant response rating (0 to 100 scale))
70%: pest or weed control at 125 g/ha (Kochia (Kochia scoparia) [10]; [19]) | pest or weed control at 31 g/ha ([15]; 31 g ai/ha, Preemergence)
60%: pest or weed control at 250 g/ha [18]
85%: pest or weed control at 250 g/ha [16]
20%: pest or weed control at 125 g/ha (Kochia (Kochia scoparia) [2]; 125 g ai/ha, postemergence, visual injury vs untreated controls after approx. 10 d, 0 = no effect, 100 = complete control, read-out: Kochia plant response rating (0 to 100 scale)) | pest or weed control at 31 g/ha ([6]; Postemergence, 31 g ai/ha, visual injury after approx. 10 d, 0 to 100 scale, 0 no effect, 100 complete control, read-out: Plant response rating, Galium) | pest or weed control at 125 g/ha [7] | pest or weed control at 31 g/ha ([8]; Postemergence, 31 g ai/ha, visual injury after approx. 10 d, 0 to 100 scale, 0 no effect, 100 complete control, read-out: Plant response rating, Barnyardgrass) | plant injury at 125 g/ha [9] | pest or weed control at 125 g/ha [13, 19]
100%: pest or weed control at 125 g/ha ([8]; 125 g ai/ha, postemergence, visual injury vs untreated controls after approx. 10 d, 0 = no effect, 100 = complete control, read-out: Barnyardgrass plant response rating (0 to 100 scale)) | pest or weed control at 125 g/ha [11, 19] | pest or weed control at 125 g/ha [15, 19]
40%: pest or weed control at 125 g/ha ([1]; 125 g ai/ha, postemergence, visual injury vs untreated controls after approx. 10 d, 0 = no effect, 100 = complete control, read-out: Blackgrass plant response rating (0 to 100 scale)) | pest or weed control at 31 g/ha ([3]; Postemergence, 31 g ai/ha, visual injury after approx. 10 d, 0 to 100 scale, 0 no effect, 100 complete control, read-out: Plant response rating, Foxtail, Giant) | pest or weed control at 125 g/ha [14, 19]
90%: pest or weed control at 31 g/ha ([11]; 31 g ai/ha, Preemergence)
50%: pest or weed control at 125 g/ha ([6]; 125 g ai/ha, postemergence, visual injury vs untreated controls after approx. 10 d, 0 = no effect, 100 = complete control, read-out: Galium plant response rating (0 to 100 scale)) | pest or weed control at 31 g/ha (Kochia (Kochia scoparia) [10]; 31 g ai/ha, Preemergence) | pest or weed control at 125 g/ha [12, 19]
